These results are taken from patent publication EP3928779A1 (Chugai Seiyaku Kabushiki Kaisha, priority 2014, dated 2016).

The test system of assay [1] is adenine-induced renal failure rat. The experiment in a line: Suppressive effect on rise in serum phosphorus concentration of adenine-induced renal failure rat (0.1% in feed, 3 days). Format: in vivo. Particulars: feed or water, 72 h, adenine-induced renal failure Wistar male rat, test compound 0.1% of mass concentration in feed for 3 days, Fiske-Subbarow method, read-out: rate (%) of suppression of a rise in serum phosphorus concentration. From the text: Adenine was forcedly administered orally to each Wistar male rat (7-8 weeks old) to impair renal functions and thereby prepare a hyperphosphatemia model ([…], Nagano N, Burke SK, Fukushima N. Sevelamer hydrochloride prevents ectopic calcification and renal osteodystrophy in chronic renal failure rats. Kidney Int. 2003 Aug; 64 (2): 441-50). Each test compound was mixed at a ratio of 0.1% of mass concentration with feed. The animal was fed with a given amount of the feed for 3 days. A group given feed non-supplemented with a test compound was used as a reference pathological group, and an adenine-unadministered group given feed non-supplemented with a test compound was used as a normal group. 3 days after the start of administration of the test compound, blood was collected from the jugular vein, and serum was collected. Serum phosphorus concentrations were measured by the Fiske-Subbarow method. The rate of suppression of a rise in serum phosphorus concentration was determined according to the following expression: Rate (%) of suppression of a rise in serum phosphorus concentration = (1-[(Serum phosphorus concentration of the test compound-treated pathological group)-(Serum phosphorus concentration of the normal group)]/[(Serum phosphorus concentration of the reference pathological group)-(Serum phosphorus concentration of the normal group)]) × 100 [formula] As a result, each test compound was confirmed to have a suppressive effect on a rise in serum phosphorus concentration. […]

Assay [2] has as its system rat small-intestinal brush border membrane vesicles. The experiment in a line: Inhibitory effect on 33PO4 uptake into rat small-intestinal brush border membrane vesicles (rapid filtration method). The class given is biochemical. Particulars: 33PO4 uptake into rat small-intestinal BBMVs; test compound 1 µM; reacted for 60 seconds. An outline of the steps:
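Uptake of ^33PO4 was measured by rapid filtration and liquid scintillation counting of filter-retained vesicles, after quenching with ice-cold 110 mM NaCl/1 mM KH2PO4/10 mM HEPES pH 7.5. Vesicles were brush border membranes from the upper small intestine of female Wistar rats aged 4–5 weeks.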

In the case of `C[C@]12CCCN1N(Cc1cccc(Cl)c1F)C(=O)C(C(=O)Nc1cc(F)c(Br)c(F)c1)=C2O` [Example 196, (4aR)-N-(4-Bromo-3,5-difluorophenyl)-1-[(3-chloro-2-fluorophenyl)methyl]-4-hydroxy-4a-methyl-2-oxo-6,7-dihydro-5H-pyrrolo[1,2-b]pyridazine-3-carboxamide], in assay [1], the inhibition in vivo at 0.1 % in feed amounted to 35%. In addition, the “Rate of uptake inhibition (%) (1 µM)” value in assay [2] came to 90%.

Consider `C[C@]12CCCN1N(Cc1ccc(OCCN3CCOCC3)c(F)c1F)C(=O)C(C(=O)Nc1ccc(C(F)(F)F)cc1-c1cc(C(F)(F)F)ncn1)=C2O` [Example 157, (4aR)-1-[[2,3-Difluoro-4-(2-morpholin-4-ylethoxy)phenyl]methyl]-4-hydroxy-4a-methyl-2-oxo-N-[4-(trifluoromethyl)-2-[6-(trifluoromethyl)pyrimidin-4-yl]phenyl]-6,7-dihydro-5H-pyrrolo[1,2-b]pyridazine-3-carboxamide], for which the inhibition in vivo at 0.1 % in feed in assay [1] was 30%. Also, in assay [2], the “Rate of uptake inhibition (%) (1 µM)” value is recorded as 89%.

Regarding `C[C@]12CCCN1N(Cc1ccc(C#CCN3CCOCC3)c(F)c1F)C(=O)C(C(=O)Nc1ccc(C(F)(F)F)cc1-c1ccc(C(F)(F)F)nc1)=C2O` [Example 140, (4aR)-1-[[2,3-Difluoro-4-(3-morpholin-4-ylprop-1-ynyl)phenyl]methyl]-4-hydroxy-4a-methyl-2-oxo-N-[4-(trifluoromethyl)-2-[6-(trifluoromethyl)pyridin-3-yl]phenyl]-6,7-dihydro-5H-pyrrolo[1,2-b]pyridazine-3-carboxamide], the inhibition in vivo at 0.1 % in feed in assay [1] amounted to 39%. Also, the “Rate of uptake inhibition (%) (1 µM)” value in assay [2] came to 77%.

On to `COC[C@@H]1CCCN1CCOc1ccc(CN2C(=O)C(C(=O)Nc3ccc(C(F)(F)F)cc3-c3cc(C(F)(F)F)ncn3)=C(O)C3(CCC3)N2C)c(F)c1F` [Example 345, 6-[[2,3-Difluoro-4-[2-[(2S)-2-(methoxymethyl)pyrrolidin-1-yl]ethoxy]phenyl]methyl]-9-hydroxy-5-methyl-7-oxo-N-[4-(trifluoromethyl)-2-[6-(trifluoromethyl)pyrimidin-4-yl]phenyl]-5,6-diazaspiro[3.5]non-8-ene-8-carboxamide], for which, in assay [1], the inhibition in vivo at 0.1 % in feed was 19%. The “Rate of uptake inhibition (%) (1 µM)” value in assay [2] came out at 73%.

`C[C@]12CCCN1N(Cc1ccc(OCCCCOC[C@H](O)CO)c(F)c1F)C(=O)C(C(=O)Nc1ccc(C(F)(F)F)cc1-c1cc(C(F)(F)F)ncn1)=C2O` [Example 152, (4aR)-1-[[4-[4-[(2R)-2,3-Dihydroxypropoxy]butoxy]-2,3-difluorophenyl]methyl]-4-hydroxy-4a-methyl-2-oxo-N-[4-(trifluoromethyl)-2-[6-(trifluoromethyl)pyrimidin-4-yl]phenyl]-6,7-dihydro-5H-pyrrolo[1,2-b]pyridazine-3-carboxamide]: in assay [1], the inhibition in vivo at 0.1 % in feed worked out at 26%. Besides, in assay [2], the “Rate of uptake inhibition (%) (1 µM)” value turned out to be 54%.
